Measured values from patent US12673918B2, “Small molecule RPN13 inhibitors with antitumor properties” (The Johns Hopkins University, priority 2019, dated 2026).
Where two headings read alike, the source gives them in different places.

How the values were obtained:
SUM1315 = experiment: cells; conditions: read-out: cytotoxicity IC50 SUM1315
Method: (§1) Cell lines and cytotoxicity assays: All cell lines were obtained from the American Type Culture Collection (ATCC) and cultured in the specified medium supplemented with 10% fetal bovine serum, 100 IU/mL penicillin, and 100 μg/mL streptomycin at 37° C. in a humidified 5% CO2/95% air incubator. […] To assess drug cytotoxicity, cells were seeded at 2,500 cells/well (10,000 cells/well for MM lines) in 100 μL medium in 96-well plate and after 24 treated with compounds for 72 h, incubated according to the manufacturer's protocol with the Thiazolyl Blue Tetrazolium Bromide (Sigma, M2128) and A570 measured using a Benchmark Plus microplate spectrophotometer (BIO-RAD). IC50 data was analyzed by Graphpad Prism software. In the chirality studies the cells were treated with compounds for 48 h, and the cells were incubated and measured via the preceeding protocols.

TOV21G = experiment: MTT cytotoxicity assay, TOV21G
BR5-FvB1 = experiment: MTT cytotoxicity assay, BR5-FvB1; conditions: Mus musculus, read-out: cytotoxicity IC50 BR5-FvB1
Method: as §1

PEA1 = experiment: cells; conditions: read-out: cytotoxicity IC50 PEA1
Method: as §1

MDA-MB-468 = experiment: cells; conditions: Homo sapiens, MDA-MB-468, read-out: cytotoxicity IC50 MDA-MB-468
Method: as §1

SUM149 = experiment: cells; conditions: SUM149, read-out: cytotoxicity IC50 SUM149
Method: as §1

in vivo = conditions: female, CD1, mouse, ip
Method: Pilot safety studies were performed in CD1 mice (n=3/dose group of healthy female mice aged 6-8 weeks) with increasing single doses delivered i.p. and the NOAEL (no-observed-adverse-effect level) was selected for further animal studies. […] Bortezomib was dissolved in a minimal amount of DMSO and further diluted with saline before injection in a dose finding study. […] To measure on-target inhibition of proteasome activity in mice, a leg muscle of CD-1 mice was transduced with the 4UbFL reporter construct. […] Briefly, mouse leg muscle was electroporated with 4UbFL plasmid and basal bioluminescence was measured after 24 hr using IVIS200 imager after injecting luciferin substrate. Mice were randomized (n=5/group) and treated with compounds in PEG400: Cremophor: Tween40 combination or vehicle alone as shown in Table 5 with one dose delivered by intraperitoneal injection. The mice were again imaged at 4 h, 24 h, 48 h post treatment.

BR5-Luc = experiment: MTT cytotoxicity assay, BR5-Luc; conditions: read-out: cytotoxicity IC50 BR5-Luc, Tables 3A/4B/4C, BRCA2 − VE
PEA2 = experiment: cells; conditions: read-out: cytotoxicity IC50 PEA2
Method: as §1

PEO1 = experiment: cells; conditions: Homo sapiens, PEO1, read-out: cytotoxicity IC50 PEO1
Method: as §1

KLE = experiment: MTT cytotoxicity assay, KLE; conditions: read-out: cytotoxicity IC50 KLE, Tables 3A/4B/4C
CHOP-10 mRNA = experiment: RT-qPCR of CHOP-10 mRNA, ES2 cells; type: cell-based, human; conditions: ES2, 0.5 μM, 12 hr
Method: FIG. 7A illustrates ES2 cells (250,000 cells/well) treated with compounds at 1 μM for 12 hr and mRNA was isolated. Samples were subjected to RT-qPCR to measure CHOP10 and mRNA levels normalized to GAPDH expression. Significance versus DMSO control (ns=not significant, ** <0.01, *** <0.001, **** <0.0001).
FIG. 16A illustrates ES2 cells treated with compounds (0.5 μM) for 12 hr and CHOP-10 mRNA levels, an ER stress marker, which was analyzed by qRT-PCR.
Q-PCR to measure mRNA levels: Total RNA was isolated from cells using the RNeasy mini kit (Qiagen) according to the manufacturer's instructions. Extracted RNA was normalized for concentration and reverse transcribed using an iScript cDNA synthesis kit (Bio-Rad) according to the manufacturer's instructions. CHOP10 expression levels were measured by Taqman gene expression assays with Taqman gene expression master mix (Applied Biosystems) and run with a standard thermal cycling protocol. Spliced XBP1 mRNA was assayed with SsoFast EvaGreen Supermix (Bio-rad) following the protocol for the iCycler System using as primers: F: 5′-[…]-3′ and R: 5′-[…]-3′. Calculations were done according to the Livak method and normalized to the reference gene GAPDH. Each condition was replicated three times; each sample was run in triplicate.

ID8-vegf = experiment: MTT cytotoxicity assay, ID8-vegf; conditions: read-out: cytotoxicity IC50 ID8-vegf, Tables 3A/4B/4C
OVCAR3 = experiment: MTT cytotoxicity assay, OVCAR3
A2780 = experiment: MTT cytotoxicity assay, A2780
SSC90 = experiment: MTT cytotoxicity assay, SSC90
MM.1S = experiment: MTT cytotoxicity assay, MM.1S; type: cell-based; conditions: Homo sapiens, MM1.S, read-out: IC50 MM.1S
Method: (§2) The cytotoxic efficacy of selected compounds was assessed against multiple myeloma (MM) cell lines, as this is a validated clinical target for the licensed proteasome inhibitors.
(§3) Cell lines and cytotoxicity assays: All cell lines were obtained from the American Type Culture Collection (ATCC) and cultured in the specified medium supplemented with 10% fetal bovine serum, 100 IU/mL penicillin, and 100 μg/mL streptomycin at 37° C. in a humidified 5% CO2/95% air incubator. […] To assess drug cytotoxicity, cells were seeded at 2,500 cells/well (10,000 cells/well for MM lines) in 100 μL medium in 96-well plate and after 24 treated with compounds for 72 h, incubated according to the manufacturer's protocol with the Thiazolyl Blue Tetrazolium Bromide (Sigma, M2128) and A570 measured using a Benchmark Plus microplate spectrophotometer (BIO-RAD). IC50 data was analyzed by Graphpad Prism software.

ANBL6 = experiment: MTT cytotoxicity assay, ANBL6; type: cell-based; conditions: Homo sapiens, read-out: IC50 ANBL6
Method: as §2, §3

HCC1806 = experiment: MTT cytotoxicity assay, HCC1806; type: cell-based; conditions: Homo sapiens, read-out: IC50 HCC1806
Method: as §3

RPMI8226-V10R = experiment: MTT cytotoxicity assay, RPMI8226-V10R; type: cell-based; conditions: read-out: IC50 RPMI8226-V10R
Method: as §2, §3

[1] = read-out: cytotoxicity IC50 TOV21G, Tables 3A/4B/4C, MTT assay
[2] = read-out: cytotoxicity IC50 OVCAR3, Tables 3A/4B/4C, MTT assay
[3] = read-out: cytotoxicity IC50 A2780, Tables 3A/4B/4C, MTT assay
[4] = read-out: cytotoxicity IC50 SSC90, Tables 3A/4B/4C, MTT assay
[5] = read-out: IC50 TOV21G, Table 3, MTT, 48 hr, Ovarian

Row | SMILES | IC50 (SUM1315) [nM] | IC50 (TOV21G; [1]) [nM] | IC50 (BR5-FvB1) [nM] | IC50 (PEA1) [nM] | IC50 (MDA-MB-468) [nM] | IC50 (SUM149) [nM] | NOAEL (in vivo) [mg/kg] | IC50 (BR5-Luc) [nM] | IC50 (PEA2) [nM] | IC50 (PEO1) [nM] | IC50 (KLE) [nM] | CHOP10 transcript levels (CHOP-10 mRNA) | IC50 (ID8-vegf) [nM] | IC50 (OVCAR3; [2]) [nM] | IC50 (A2780; [3]) [nM] | IC50 (SSC90; [4]) [nM] | IC50 (MM.1S; 48 h) [nM] | IC50 (TOV21G; [5]) [nM] | IC50 (ANBL6; ANBL-6, 48 h) [nM] | IC50 (HCC1806; HCC1806, 48 h) [nM] | also measured
1 | C[C@H]1/C(=C\c2ccc([N+](=O)[O-])cc2)C(=O)/C(=C/c2ccc([N+](=O)[O-])cc2)CN1C(=O)[C@@H](N)Cc1ccccc1 | 258 | 3.6 | 125 | 70 | 75 | 20 | 30 | 5.7 | 64 | 31 | 1460 | significantly increased CHOP10 transcript levels | – | – | – | – | – | – | – | – | –
2 | CC(C)C[C@H](NC(=O)[C@H](Cc1ccccc1)NC(=O)c1cnccn1)B(O)O [Bortezomib, bortezomib, reference compound] | – | – | < 20 | 30 | – | 30 | 0.75 | 4.1 | 30 | 31 | 1190 | significantly increased CHOP10 transcript levels | 1.5 | 30 | 3 | 15 | – | – | – | – | –
3 | N[C@@H](Cc1ccccc1)C(=O)N1C/C(=C\c2ccc([N+](=O)[O-])cc2)C(=O)/C(=C/c2ccc([N+](=O)[O-])cc2)C1 [RA183, reference compound] | – | 53 | – | – | 250 | – | – | – | – | – | 989 | – | 198 | 78 | 161 | – | 46 | 44 | 58 | 44 | IC50 (OVCAR3; read-out: IC50 OVCAR3, Table 3, MTT, 48 hr, Ovarian): 78 nM; IC50 (A2780; read-out: IC50 A2780, Table 3, MTT, 48 hr, Ovarian): 161 nM; IC50 (RPMI8226-V10R; 48 h): 139 nM
4 | N[C@@H](Cc1ccccc1)C(=O)N1C/C(=C\c2ccc(Cl)c(Cl)c2)C(=O)/C(=C/c2ccc(Cl)c(Cl)c2)C1 [RA190, reference compound] | 1370 | 148 | 250 | 386 | 300 | 233 | – | 38 | 396 | 232 | 1590 | – | 211 | 120 | 139 | 625 | – | 83 | – | – | IC50 (MM.1S; Table 3, MTT, 48 hr, Multiple Myeloma): 72 nM; IC50 (ANBL6; ANBL-6, Table 3, MTT, 48 hr, Multiple Myeloma): 67 nM; IC50 (HCC1806; HCC1806, Table 3, MTT, 48 hr, Triple Negative Breast): 52 nM; IC50 (RPMI8226-V10R; Table 3, MTT, 48 hr, Multiple Myeloma, bortezomib resistant): 47 nM
5 | O=C(CCl)N[C@@H](Cc1ccccc1)C(=O)N1C/C(=C\c2ccc([N+](=O)[O-])cc2)C(=O)/C(=C/c2ccc([N+](=O)[O-])cc2)C1 [RA375] | 19 | – | – | – | – | – | – | – | 60 | 27 | – | – | – | – | – | – | 11 | – | 12 | 17 | IC50 (TOV21G; read-out: IC50 TOV21G): 6 nM; IC50 (OVCAR3; read-out: IC50 OVCAR3): 17 nM; IC50 (RPMI8226-V10R; 48 h): 6 nM; IC50 (SSC90; read-out: IC50 SSC90): 24 nM
6 | CC1/C(=C\c2ccc([N+](=O)[O-])cc2)C(=O)/C(=C/c2ccc([N+](=O)[O-])cc2)CN1C(=O)[C@H](Cc1ccccc1)NC(=O)CCl (stereo partly drawn) [RA414] | 20 | 1.1 | – | 30 | < 20 | < 20 | 3 | – | 30 | 30 | 1120 | significantly increased CHOP10 transcript levels | < 40 | < 20 | 3.5 | < 20 | – | – | – | – | –
